Data reported in patent publication US8440168B2, “Image-guided therapy of myocardial disease: composition, manufacturing and applications” (The Board of Regents of the University of Texas System, priority 2008, dated 2013).

How the values were obtained:
[1] = tested on: breast tumor-bearing rats; assay: Planar scintigraphic imaging in breast tumor-bearing rats; type: in vivo, Female Fischer 344 rats
Experimental: (§1) To ascertain ^99mTc-EDA-ESM is a heart-specific agent, not tumor seeking agent, the inventors created a tumor model. Female Fischer 344 rats (125-175 g, n=5) were inoculated with breast cancer cells (13762NF, 10^6 cells/rat, s.c. in the hind leg). After 15-20 days and a tumor volume of […], the breast tumor-bearing rats were administered with 300 μCi of ^99mTc-EDA-ESM. Scintigraphic images, using a gamma camera equipped with low-energy, parallel-hole collimator, were obtained from 15 to 45 min. In separate studies, normal Female Fischer 344 rats ([…], n=5) were administered with 300 μCi of ^99mTc-EDA-ESM and scintigraphic images were obtained at 30-180 min. One rat was administered with 300 μCi of ^99mTc-EDA-ESM and SPECT/CT was performed at 45 min. […] In normal rats administered with ^99mTc-EDA-ESM (n=5), heart to muscle ([…]) count density uptake ratios were increased (2.7 to 5.1) at 30-180 min (FIG. 11).

[2] = tested on: normal rat; assay: SPECT/CT imaging of a normal rat; type: in vivo; conditions: 300 μCi, SPECT/CT at 45 min
Experimental: as §1

[3] = breast tumor-bearing rats (13762NF), 300 μCi, planar scintigraphy 15 to 45 min

Structure (SMILES): CC(C)NCC(O)COc1ccc(CCC(=O)[N]2CC[NH][Tc]23(=[O])[NH]CC[N]3C(=O)CCc2ccc(OCC(O)CNC(C)C)cc2)cc1 (centres unmarked) [^99mTc-EDA-ESM, ^99mTc-Ethylenediamine-esmolol]
- heart uptake [1, 3]: high uptake
- tumor visualization [1, 3]: could not be visualized well
- cardiac region count/pixels ratio (line profile curve) ([1]; breast tumor-bearing rats, 300 μCi/rat, 15-45 minutes, compared to laterally located tissues): high cardiac region count/pixels ratio
- Heart to muscle (H/M) count density uptake ratios ([1]; tumor-bearing rats (n=4), 300 μCi IV, sacrificed at 2 hrs, compared with heart/other tissue ratios): higher than other tissues
- heart uptake (SPECT/CT) [2]: high heart uptake
